Peptide text beside a SMILES is read from it.

These results are taken from US9867862B2, “Compounds and method for treating or preventing disease conditions associated with alpha-1-antitrypsin” (AMICUS THERAPEUTICS, INC., priority 2010, dated 2018).

The target of assay [1] is T1, ZAT (Homo sapiens, UniProt P01009, E366K). Particulars: background studies; cited from earlier work.
Assay [2] concerns the target T1, ZAT. In words: In vitro polymerization assay (native gel, western blot). The assay is classed as biochemical. Particulars: FIG. 3 western blot; peptides at 1 mM with Z-AT, 4 hours 37° C. then 30 minutes 62° C.; versus control (no peptide). The procedure:
An in vitro polymerization assay was employed to screen the ability of a pharmacological chaperone to inhibit polymerization. […] In brief, M-AT or Z-AT was incubated at 37° C. for 4 hours, followed by 30 minutes at 62° C. The samples were then run on a Bis-Tris native gel and either blotted onto PVDF or detected with colloidal blue staining. Peptides at 1 mM were incubated with equal amounts (50 ng) of Z-AT for 4 hours at 37° C., followed by a 62° C. pulse for 30 minutes. Samples were separated on a 4-12% Bis-Tris native gel, blotted onto PVDF and the blot probed with a human specific antibody for alpha-1-antitrypsin. Additionally, in the case of samples from human plasma, a western blot was performed to assess the level of alpha-1-antitrypsin. polymerization. The inducible HeLa cell line retains Z-AT intracellularly as little Z-AT can be detected in the media. The Z-AT contained in lysates is apparently not processed to complex N-glycans as the molecular weight is slightly lower than M-AT purified from plasma, which is consistent with the findings of others. The intracellular material is endo H sensitive indicative of high mannose N-linked glycans.
For orientation: A western blot detects proteins with antibodies after separation by electrophoresis.

The target of a further assay is alpha-1-antitrypsin (Homo sapiens, UniProt P01009, E366K). Description: Alpha-1-antitrypsin elastase inhibition assay. It counts as biochemical. The source says: An elastase inhibition assay was developed to measure the effects of a test compound on the inhibitory activity of secreted Z-AT. In one embodiment, to detect elastase activity, bovine elastin was labeled with BODIPY, which causes the fluorescence of the conjugate to be quenched. This non-fluorescent substrate was digested by elastase to yield highly fluorescent fragments. Alternatively, the non-fluorescent substrate may be digested by another protease to yield fluorescent fragments. The activity of α-1-antitrypsin was monitored by measuring a decrease in fluorescent signal, indicative of the elastase inhibitory activity of α-1-antitrypsin. […] In one embodiment, the resulting fluorescence was monitored in a Perkin Elmer Victor V plate reader using absorption and emission filters for fluorescein […].
Additional cell lines to screen for pharmacologic chaperones and to identify surrogate markers of Z-AT expression were developed using an inducible promoter system. The inducible systems are useful for determining if particular chaperones need to be present prior to Z-AT translation in the endoplasmic reticulum to induce secretion of Z-AT and/or inhibit […]

The target in assay [3] is T1, ZAT. In words: Western blot of intracellular ZAT in ZAT inducible CHO cells. The assay is classed as cell-based. Set-up: expressed in transfected cells; host or cells: inducible serum-free CHO cells (tetracycline repressor control). The conditions noted are these: for intracellular levels of ZAT, normalized densitometry: FIG. 14 graph. The protocol: Serum Free CHO and HeLa cells in which expression of Z-AT is under control of the tetracycline repressor were grown to confluence. To analyze the intra- and extracellular production of Z-AT, media was collected and cells were lysed in non-ionic detergent. Media and lysates were analyzed on a NuPAGE SDS gel followed by western blotting utilizing a human specific sheep anti-human alpha-1-antitrypsin polyclonal antibody.
Furthermore, two compounds, compounds V and VI, decrease intracellular levels of ZAT. These compounds are shown in Table 2, along with structural data for each compound. […] The levels of intracellular levels of ZAT are even lower when treated at the higher concentration. […] FIG. 13 depicts a western blot of intracellular levels of ZAT after 1mM treatment. […] FIG. 14 is a graph of showing intracellular levels of ZAT after 1mM treatment with compounds V and VI. […] FIG. 15 is an in vitro polymerization assay with compounds I-VI, as well as Ac-TTAI-NH2 (SEQ ID NO: 6), a vehicle control and non-treated alpha-1-antitrypsin. There is an increase in polymerization after treatment with the low-molecular weight compounds.

Assay [4] concerns the target T1, ZAT. Description: Extracellular alpha-1-antitrypsin activity in media of ZAT inducible CHO cells. The assay is classed as cell-based. Set-up: expressed in transfected cells; host or cells: inducible serum-free CHO cells (tetracycline repressor control). Particulars: FIG. 11, increasing treatment. The source says:
An elastase inhibition assay was developed to measure the effects of a test compound on the inhibitory activity of secreted Z-AT. In one embodiment, to detect elastase activity, bovine elastin was labeled with BODIPY, which causes the fluorescence of the conjugate to be quenched. This non-fluorescent substrate was digested by elastase to yield highly fluorescent fragments. Alternatively, the non-fluorescent substrate may be digested by another protease to yield fluorescent fragments. The activity of α-1-antitrypsin was monitored by measuring a decrease in fluorescent signal, indicative of the elastase inhibitory activity of α-1-antitrypsin. A test compound was added to determine its effect on the elastase inhibitory activity of α-1-antitrypsin. In one embodiment, the resulting fluorescence was monitored in a Perkin Elmer Victor V plate reader using absorption and emission filters for fluorescein […].
Serum free CHO cell lines were developed, expressing M-AT, Z-AT (Glu342Lys) and the S mutation (Glu264Val), so that secreted alpha-1-antitrypsin activity could be measured directly from media without interference from bovine, alpha-1-antitrypsin introduced into the media from serum. Briefly, cDNA was isolated by PCR from first strand human liver cDNA using conventional cloning methods. […]

The target in assay [5] is T1, ZAT. Particulars: background studies; cited from earlier work. The source holds these as a separate data set.
The mark [6] stands for this setting: 100 μM, FIG. 9 western blot, ZAT inducible CHO cells.
[7] abbreviates: 1 mM, FIG. 10 western blot, ZAT inducible CHO cells, compared with 100 μM.

T1 sequence (P01009 25-418 E366K): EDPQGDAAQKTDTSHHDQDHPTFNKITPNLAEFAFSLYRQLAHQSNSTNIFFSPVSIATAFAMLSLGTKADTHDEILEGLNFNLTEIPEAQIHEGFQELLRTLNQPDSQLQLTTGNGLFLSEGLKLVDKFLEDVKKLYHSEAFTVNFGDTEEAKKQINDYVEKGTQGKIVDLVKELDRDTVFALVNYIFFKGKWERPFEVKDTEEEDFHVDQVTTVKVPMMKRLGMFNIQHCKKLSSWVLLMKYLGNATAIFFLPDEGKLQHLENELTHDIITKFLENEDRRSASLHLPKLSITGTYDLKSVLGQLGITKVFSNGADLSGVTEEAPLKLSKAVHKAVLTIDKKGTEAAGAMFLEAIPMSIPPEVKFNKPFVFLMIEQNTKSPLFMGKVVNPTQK
alpha-1-antitrypsin, sequence (P01009 25-418 E366K): as above

With `O=C(O)CCCc1ccccc1` [4-phenylbutyric acid], the “secretion of Z-AT from cells” value at ZAT [1] is on record as “can increase secretion of Z-AT from cells”.
As to `CC(=O)NC(C(=O)NC(CCC(=O)O)C(=O)NC(C)C(=O)NC(C)C(N)=O)C(C)O` (stereo not drawn) [Ac-TEAA-NH2, Ac-Thr-Glu-Ala-Ala-NH2] (Ac-TEAA-NH2; configuration not given here), the alpha-1-antitrypsin polymerization entry on ZAT [2] is reported as “significantly less alpha-1-antitrypsin polymerization”.
As for `CC(=O)NC(C(=O)NC(CCC(=O)O)C(=O)NC(C)C(=O)NC(C)C(=O)NCC(N)=O)C(C)O` (stereo not drawn) [Ac-TEAAG-NH2, Ac-Thr-Glu-Ala-Ala-Gly-NH2] (Ac-TEAAG-NH2; configuration not given here), the alpha-1-antitrypsin polymerization entry at ZAT [2] was “significantly less alpha-1-antitrypsin polymerization”.
For the molecule `CC(=O)NC(C(=O)NC(CCC(=O)O)C(=O)NC(C(=O)NC(C)C(N)=O)C(C)C)C(C)O` (stereo not drawn) [Ac-TEVA-NH2, Ac-Thr-Glu-Val-Ala-NH2] (Ac-TEVA-NH2; configuration not given here), the “inhibition of elastase activity by alpha-1-antitrypsin in the presence of peptide” value on alpha-1-antitrypsin (FIG. 2) is listed as “inhibits elastase activity significantly, in fact to a level comparable to that of wild type alpha-1-antitrypsin”. Also, the “inhibition of alpha-1-antitrypsin activity by the peptide” value against alpha-1-antitrypsin (at concentrations required to inhibit polymerization) is listed as “does not inhibit alpha-1-antitrypsin activity”. The alpha-1-antitrypsin polymerization entry at ZAT [2] is given as “significantly less alpha-1-antitrypsin polymerization”.
`CC(=O)NC(C(=O)NC(CO)C(=O)NC(C)C(=O)NC(C)C(N)=O)C(C)O` (stereo not drawn) [Ac-TSAA-NH2, Ac-Thr-Ser-Ala-Ala-NH2] (Ac-TSAA-NH2; configuration not given here): the alpha-1-antitrypsin polymerization entry at ZAT [2] is “significantly less alpha-1-antitrypsin polymerization”.
For the molecule `COc1ccc(C(O)C(=O)NNC(=O)N[C@H](C(N)=O)C(C)O)cc1O` (stereo partly drawn) [Compound VI], the “intracellular levels of ZAT” value at ZAT [3] (setting [6]) was “lower levels of ZAT”; on ZAT [3] (setting [7]), “even lower”; at ZAT [3] (1 mM, FIG. 13 western blot) it was “significant reduction in ZAT levels intracellularly”. For the same molecule, on ZAT [3] (1 mM), the “intracellular levels of ZAT, normalized densitometry” value is on record as “Levels are lower”.
Regarding `COc1ccc(C(O)C(=O)NNC(=O)N[C@@H](CO)C(N)=O)cc1O` (stereo partly drawn) [Compound V], the “intracellular levels of ZAT” value on ZAT [3] (setting [6]) is recorded as “lower levels of ZAT”; on ZAT [3] (setting [7]) it was “even lower”; on ZAT [3] (1 mM, FIG. 13 western blot), “significant reduction in ZAT levels intracellularly”. The “intracellular levels of ZAT, normalized densitometry” value at ZAT [3] (1 mM) is “Levels are lower”. In addition, the “extracellular levels of ZAT and alpha-1-antitrypsin activity” value at ZAT [4] is on record as “higher activity levels with higher treatment”.
As to `O=C(O)CC(O)(CC(=O)O)C(=O)O` [citrate], the “in vitro polymerization of Z-AT” value on ZAT [5] is “block in vitro polymerization of Z-AT”.
With Ac-TTAI-NH2, in the assay with ZAT [5], the “in vitro polymerization of Z-AT” value is “block in vitro polymerization of Z-AT”.
